Source: patent publication US12053506B2, “Romo1-derived antimicrobial peptides and variants thereof” (priority 2019, dated 2024)
Values after ≈ are worked out from the molar mass of the structure shown. Read-outs that look alike come from different tables or passages of the source. Non-standard residues stand in square brackets, D forms with d. Residues, ends and D or L forms follow the SMILES beside them. No end group written: not given here.

B1: MPVAVGPYGQSQPSCFDRVKMGFVMGCAVGMAAGALFGTFSCLRIGMRGRELMGGIGKTMMQSGGTFGTFMAIGMGIRC (protein)
chain: MPVAVGPYGQSQPSCFDRVKMGFVMGCAVGMAAGALFGTFSCLRIGMRGRELMGGIGKTMMQSGGTFGTFMAIGMGIRC
modifications: Homo sapiens Romo1

Tests used:
[1] = tested on: Pseudomonas aeruginosa (ATCC 27853); format: cell-based; conditions: for MBC Pseudomonas aeruginosa: Tables 11-15, no unit printed
Excerpt: (§1) Romo1 protein comprises two α-helices. The present inventors synthesized the α-helix 2 region having both hydrophilicity and hydrophobicity, and evaluated the antibacterial activity thereof using minimum bactericidal concentration (MBC) assay. The α-helix 2 region was named KU-5279 (the 52-79 amino acid region of Romo1 protein). Then, in order to identify peptides that are beneficial for human application and have excellent antibacterial activity, the present inventors synthesized several peptides comprising a sequence of contiguous amino acids starting at any amino acid selected from the 52-79 amino acid region of Romo1 protein, and comparatively evaluated the antibacterial activities of the peptides by minimum bactericidal concentration assay (See Table 1 below for information on each peptide). Evaluation of the antibacterial activity of each peptide by minimum bactericidal concentration assay was specifically performed as follows. First, each of Pseudomonas aeruginosa (ATCC 27853) and Staphylococcus aureus (ATCC 29213) was cultured in 3% (w/v) TSB (Tryptic Soy Broth) liquid medium at 37° C. and 200 rpm for 4 hours, and then further cultured under the same conditions for 3 hours to a concentration of 5×10^6 CFU/ml. Strain solutions were prepared by diluting each of the further cultured strains with SP (sodium phosphate; 10 mM sodium phosphate, 1% TSB) buffer to a final concentration of 2×10^5 CFU/ml. Then, each peptide at varying concentrations (0 μg/ml to 300 μg/ml) was dispensed into each well of a 96-well microplate, and 100 μl (1×10^5 CFU/ml) of each of the prepared strain solutions was added thereto, mixed therewith, and allowed to react with the peptide in an incubator at 37° C. for 1 hour. In addition, 30 g/L of TS (tryptic soy) and 15 g/L of agar were dissolved in distilled water and sterilized, and then 25 ml of the solution was poured onto a 100 mm round plate and solidified at room temperature for one day or more, thereby preparing a TS agar plate. 10 μl of each reaction solution of the peptide and the strain was plated on the TS agar plate at a constant size, and incubated in an incubator at 37° C. for 18 hours, and then colony formation on the plate was checked. The minimum bactericidal concentration was defined as the minimum concentration of the peptide at which no colony was formed, and the experimental results are shown in Table 1 below.

[2] = tested on: Staphylococcus aureus (ATCC 29213); format: cell-based; conditions: for MBC Staphylococcus aureus: Tables 11-15, no unit printed
Excerpt: as §1

[3] = tested on: methicillin-resistant Staphylococcus aureus (ATCC 33591); conditions: Tables 11-15, no unit printed
Procedure: First, each of Pseudomonas aeruginosa (ATCC 27853) and Staphylococcus aureus (ATCC 29213) was cultured in 3% (w/v) TSB (Tryptic Soy Broth) liquid medium at 37° C. and 200 rpm for 4 hours, and then further cultured under the same conditions for 3 hours to a concentration of 5×10^6 CFU/ml. Strain solutions were prepared by diluting each of the further cultured strains with SP (sodium phosphate; 10 mM sodium phosphate, 1% TSB) buffer to a final concentration of 2×10^5 CFU/ml.
(§2) Then, each peptide at varying concentrations (0 μg/ml to 300 μg/ml) was dispensed into each well of a 96-well microplate, and 100 μl (1×10^5 CFU/ml) of each of the prepared strain solutions was added thereto, mixed therewith, and allowed to react with the peptide in an incubator at 37° C. for 1 hour.
In addition, 30 g/L of TS (tryptic soy) and 15 g/L of agar were dissolved in distilled water and sterilized, and then 25 ml of the solution was poured onto a 100 mm round plate and solidified at room temperature for one day or more, thereby preparing a TS agar plate. 10 μl of each reaction solution of the peptide and the strain was plated on the TS agar plate at a constant size, and incubated in an incubator at 37° C. for 18 hours, and then colony formation on the plate was checked.
Specifically, each type of bacteria was cultured in 3% (w/v) TSB (Tryptic Soy Broth) liquid medium at 37° C. and 200 rpm for 4 hours, and then further cultured under the same conditions for 3 hours to a concentration of 5×10^6 CFU/ml. Strain solutions were prepared by diluting each of the […] of 2×10^5 CFU/ml.
as §2, with “Then, the KU-5878” for “Then, each”
In addition, 10 μl of each reaction solution of the peptide and the strain was plated on the TS agar plate at a constant size, and incubated in an incubator at 37° C. for 18 hours, and then colony formation on the plate was checked.

CRPA = test: MBC, evaluation of antibacterial activities of KU-5878 variants; format: cell-based; conditions: Tables 11-15, no unit printed
Procedure: Variants were prepared by deleting one amino acid from the amino acid sequence of KU-5878 (SEQ ID NO: 13), and the antibacterial activities thereof were evaluated.
Variants were prepared by deleting two or more amino acids from the amino acid sequence of KU-5878 (SEQ ID NO: 13), and the antibacterial activities thereof were evaluated.
One amino acid in the amino acid sequence of KU-5878 (SEQ ID NO: 13) was substituted, and the antibacterial activities of the peptides were evaluated.
Substitutions of Q62K, S63K and T66K were sequentially added to the amino acid sequence of KU-5878-T59K, and the antibacterial activities of the peptides were evaluated.
An amino acid repeat sequence was added to the C-terminus of KU-5878, and the antibacterial activities of the peptides were evaluated. According to Table 15 below, when the R (arginine) repeat sequence or K (lysine) sequence was added to the C-terminus of KU-5878, the antibacterial activity of the peptide increased.

Molecule	MBC Pseudomonas aeruginosa [1] [µg/mL]	MBC Staphylococcus aureus [2] [µg/mL]	MBC MRSA [3] [µg/mL]	MBC CRPA (CRPA) [µg/mL]	MBC value (μg/ml) against Pseudomonas aeruginosa ([1]; ATCC 27853, 1 h) [µg/mL]	MBC value (μg/ml) against Staphylococcus aureus ([2]; ATCC 29213, 1 h) [µg/mL]	also measured
KTMMQSGG-FGTFMAIGMGIR [Peptide 5878-d66T]	90	90	90	100			
KTMMQSGGTFGTFMAIGM [KU-5875]					>300	>300	
KTMMQ-GGTFGTFMAIGMGIR [Peptide 5878-d63S]	200	200	200	200			
GGIGKTMMQSGGTFGTFMAIGMGIRC [KU-5479]						200	
KTMM-SGGTFGTFMAIGMGIR [Peptide 5878-d62Q]	100	90	100	100			
CLRIGMRGRELMGGIGKTM [pCM19, reference compound]					300	250	
KHMMQSGGTFGTFMAIGMGIR [KU-5878-T59H]	> 300	> 300	> 300	> 300			
KTMMQSGGSFGTFMAIGMGIR [KU-5878-T66S]	> 300	> 300	> 300	> 300			
KTMMQSGGTFGTFMAI-MGIR [Peptide 5878-d74G]	20	25	25	30			
KTMMQSGGTFGTFMAIGMGIRC [KU-5879]					150		
KTMMASGGTFGTFMAIGMGIR [KU-5878-Q62A]	> 300	> 300	> 300	> 300			
KTMMQRGGTFGTFMAIGMGIR [KU-5878-S63R]	20	15	25	20			
KTMMQSGGTFGTFMAIGMAIR [KU-5878-G76A]	> 300	> 300	> 300	> 300	>400	>400	
KTMMQSGGT-GTFMAIGMGIR [Peptide 5878-d67F]	200	200	200	200			
KTMMQSGGTFGTFMA-GMGIR [Peptide 5878-d73I]	> 300	> 300	> 300	> 300			
KTMMQSGGTFGTKMAIGMGIR [KU-5878-F70K]	> 300	> 300	> 300	> 300	>300	>300	

Molecule	MBC Pseudomonas aeruginosa [1] [µg/mL]	MBC Staphylococcus aureus [2] [µg/mL]	MBC MRSA [3] [µg/mL]	MBC CRPA (CRPA) [µg/mL]	MBC value (μg/ml) against Pseudomonas aeruginosa ([1]; ATCC 27853, 1 h) [µg/mL]	MBC value (μg/ml) against Staphylococcus aureus ([2]; ATCC 29213, 1 h) [µg/mL]	also measured
KTMMQSGGTFGTFMAIGMGI- [Peptide 5878-d78R]	300	300	> 300	> 300			
GKTMMQSGGTFGTFMAIGMGIRC [KU-5779]					280	250	
KTMMQSGGTFGTFMAIGMG-R [Peptide 5878-d77I]	> 300	> 300	> 300	> 300			
KTMMQSGGTFGTF-AIGMGIR [Peptide 5878-d71M]	250	250	300	300			
KTMMQSGGTFGT-MAIGMGIR [Peptide 5878-d70F]	200	200	200	200			
KTMMQAGGTFGTFMAIGMGIR [KU-5878-S63A]	300	300	> 300	300			
KT-MQSGGTFGTFM-IG-GIR [5878-d60M, d72A, d75M]	300	280	300	300			
KTMMQS-GTFGTF-AIGM-IR [5878-d64G, d71M, d76G]	200	200	200	200			
KTMMSSGGTFGTFMAIGMGIR [KU-5878-Q62S]	> 300	> 300	> 300	> 300			
KTMMQSGGTFGTFMAIGMGI [KU-5877]					>300	>300	
CC[C@@H](C)[C@@H](NC(=O)CNC(=O)[C@@H](CCSC)NC(=O)CNC(=O)[C@H](NC(=O)[C@@H](C)NC(=O)[C@@H](CCSC)NC(=O)[C@@H](Cc1ccccc1)NC(=O)[C@H](NC(=O)CNC(=O)[C@@H](Cc1ccccc1)NC(=O)[C@H](NC(=O)CNC(=O)CNC(=O)[C@@H](CO)NC(=O)[C@@H](CCC(N)=O)NC(=O)[C@@H](CCSC)NC(=O)[C@@H](CCSC)NC(=O)[C@H](NC(=O)[C@H](N)CCCCN)[C@H](C)O)[C@H](C)O)[C@H](C)O)[C@H](C)CC)C(=O)N[C@H](CCCNC(=N)N)C(=O)O [KU-5878-D(all)] (H-[dK][dT][dM][dM][dQ][dS]GG[dT][dF]G[dT][dF][dM][dA][dI]G[dM]G[dI][dR]-OH; N-terminus and C-terminus assumed)							MBC (μg/ml) value against Pseudomonas aeruginosa ([1]; ATCC 27853, 1 h): 300 µg/mL (≈ 135 µM); MBC (μg/ml) value against Staphylococcus aureus ([2]; ATCC 29213, 1 h): 300 µg/mL (≈ 135 µM)
KTMMQSGGTFGTFMAIGMG [KU-5876]					>300	>300	
KTMMQSGGTFGTFMAIGMGIR-NH2 [KU-5878-NH2]					60	70	
GKTMMQSGGTFGTFMAIGMGIR [KU-5778]					300	280	
B1							MBC value (μg/ml) against Pseudomonas aeruginosa ([1]; ATCC 27853, 1 hour reaction at 37° C.): Insoluble; MBC value (μg/ml) against Staphylococcus aureus ([2]; ATCC 29213, 1 hour reaction at 37° C.): Insoluble
